In patent publication EP4722212A1, “NOVEL COMPOUND FOR INHIBITING PROTEIN KINASES AND PHARMACEUTICAL COMPOSITION COMPRISING SAME” (Magicbullettherapeutics Co., Ltd., priority 2023, dated 2024):
Where two headings read alike, the source gives them in different places.

How the values were obtained:
Assay in all cases: Kinase panel
Format in all cases: biochemical
[1] = target: MARK4 (Homo sapiens, UniProt Q96L34); conditions: MARK4, 1 µM; read-out: residual enzyme activity
Method in brief: (§1)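 Values report residual kinase activity remaining after treatment with 1 µM compound in a biochemical panel assay. Enzymes retaining 40% or less of their activity, equivalent to at least 60% inhibition, were listed.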

[2] = target: LYN B (Homo sapiens, UniProt P07948); conditions: read-out: residual enzyme activity
Method in brief: as §1

[3] = target: CDK17/CYCLIN Y (PCTK2) (Homo sapiens, UniProt Q00537); conditions: read-out: residual enzyme activity
Method in brief: as §1

[4] = target: GRK1 (Homo sapiens, UniProt Q15835); conditions: GRK1, 1 µM; read-out: residual enzyme activity
Method in brief: as §1

[5] = target: EPHB4 (Homo sapiens, UniProt P54760); conditions: EPHB4, 1 µM; read-out: residual enzyme activity
Method in brief: as §1

[6] = target: CLK3 (Homo sapiens, UniProt P49761); conditions: CLK3, 1 µM; read-out: residual enzyme activity
Method in brief: as §1

[7] = target: CDK2/CYCLIN A (Homo sapiens, UniProt P24941); conditions: read-out: residual enzyme activity
Method in brief: as §1

[8] = target: P38A/MAPK14 (Homo sapiens, UniProt Q16539); conditions: read-out: residual enzyme activity
Method in brief: as §1

[9] = target: CDK9/CYCLIN K (Homo sapiens, UniProt P50750); conditions: read-out: residual enzyme activity
Method in brief: as §1

[10] = target: ABL1 (Homo sapiens, UniProt P00519); conditions: ABL1, 1 µM; read-out: residual enzyme activity
Method in brief: as §1

[11] = target: PKG2/PRKG2 (Homo sapiens, UniProt Q13237); conditions: PKG2/PRKG2, 1 µM; read-out: residual enzyme activity
Method in brief: as §1

[12] = target: MEK1 (Homo sapiens, UniProt Q02750); conditions: MEK1, 1 µM; read-out: residual enzyme activity
Method in brief: as §1

[13] = target: CDK6/CYCLIN D3 (Homo sapiens, UniProt Q00534); conditions: CDK6/cyclin D3, 1 µM; read-out: residual enzyme activity
Method in brief: as §1

[14] = target: FYN (Homo sapiens, UniProt P06241); conditions: read-out: residual enzyme activity
Method in brief: as §1

[15] = target: STK25/YSK1 (Homo sapiens, UniProt O00506); conditions: STK25/YSK1, 1 µM; read-out: residual enzyme activity
Method in brief: as §1

[16] = target: ERK2/MAPK1 (Homo sapiens, UniProt P28482); conditions: ERK2/MAPK1, 1 µM; read-out: residual enzyme activity
Method in brief: as §1

[17] = target: EPHB2 (Homo sapiens, UniProt P29323); conditions: EPHB2, 1 µM; read-out: residual enzyme activity
Method in brief: as §1

[18] = target: PKCEPSILON (Homo sapiens, UniProt Q02156); conditions: read-out: residual enzyme activity
Method in brief: as §1

[19] = target: MLK3/MAP3K11 (Homo sapiens, UniProt Q16584); conditions: MLK3/MAP3K11, 1 µM; read-out: residual enzyme activity
Method in brief: as §1

[20] = target: P70S6KB/RPS6KB2 (Homo sapiens, UniProt Q9UBS0); conditions: read-out: residual enzyme activity
Method in brief: as §1

[21] = target: MYO3A (Homo sapiens, UniProt Q8NEV4); conditions: read-out: residual enzyme activity
Method in brief: as §1

[22] = target: SRPK1 (Homo sapiens, UniProt Q96SB4); conditions: SRPK1, 1 µM; read-out: residual enzyme activity
Method in brief: as §1

[23] = target: PKACB (Homo sapiens, UniProt P22694); conditions: read-out: residual enzyme activity
Method in brief: as §1

[24] = target: CHK1 (Homo sapiens, UniProt O14757); conditions: CHK1, 1 µM; read-out: residual enzyme activity
Method in brief: as §1

[25] = target: SIK3 (Homo sapiens, UniProt Q9Y2K2); conditions: SIK3, 1 µM; read-out: residual enzyme activity
Method in brief: as §1

[26] = target: YSK4/MAP3K19 (Homo sapiens, UniProt Q56UN5); conditions: YSK4/MAP3K19, 1 µM; read-out: residual enzyme activity
Method in brief: as §1

[27] = target: FER (Homo sapiens, UniProt P16591); conditions: read-out: residual enzyme activity
Method in brief: as §1

[28] = target: JAK3 (Homo sapiens, UniProt P52333); conditions: JAK3, 1 µM; read-out: residual enzyme activity
Method in brief: as §1

[29] = target: STK22D/TSSK1 (Homo sapiens, UniProt Q9BXA7); conditions: STK22D/TSSK1, 1 µM; read-out: residual enzyme activity
Method in brief: as §1

[30] = target: CAMK1A (Homo sapiens, UniProt Q14012); conditions: read-out: residual enzyme activity
Method in brief: as §1

[31] = target: PDK1/PDPK1 (Homo sapiens, UniProt O15530); conditions: PDK1/PDPK1, 1 µM; read-out: residual enzyme activity
Method in brief: as §1

[32] = target: SRPK2 (Homo sapiens, UniProt P78362); conditions: SRPK2, 1 µM; read-out: residual enzyme activity
Method in brief: as §1

[33] = target: MLK2/MAP3K10 (Homo sapiens, UniProt Q02779); conditions: MLK2/MAP3K10, 1 µM; read-out: residual enzyme activity
Method in brief: as §1

Sequence of GRK1 (Q15835 whole entry, species assumed): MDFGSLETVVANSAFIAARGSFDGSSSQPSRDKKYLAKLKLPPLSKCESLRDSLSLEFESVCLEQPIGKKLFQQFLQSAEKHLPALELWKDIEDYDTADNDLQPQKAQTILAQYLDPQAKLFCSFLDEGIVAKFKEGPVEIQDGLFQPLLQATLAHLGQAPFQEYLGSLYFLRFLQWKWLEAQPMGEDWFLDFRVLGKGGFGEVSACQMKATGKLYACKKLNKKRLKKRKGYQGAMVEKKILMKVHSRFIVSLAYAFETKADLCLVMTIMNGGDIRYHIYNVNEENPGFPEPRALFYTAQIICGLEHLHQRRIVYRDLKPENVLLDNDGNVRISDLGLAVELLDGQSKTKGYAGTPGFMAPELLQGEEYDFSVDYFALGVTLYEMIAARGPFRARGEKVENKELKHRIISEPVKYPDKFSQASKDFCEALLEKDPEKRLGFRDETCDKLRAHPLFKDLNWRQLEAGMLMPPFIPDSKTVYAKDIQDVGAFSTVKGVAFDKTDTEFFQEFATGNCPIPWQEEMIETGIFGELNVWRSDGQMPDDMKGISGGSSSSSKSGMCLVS
Sequence of CDK9/CYCLIN K (P50750 whole entry, species assumed): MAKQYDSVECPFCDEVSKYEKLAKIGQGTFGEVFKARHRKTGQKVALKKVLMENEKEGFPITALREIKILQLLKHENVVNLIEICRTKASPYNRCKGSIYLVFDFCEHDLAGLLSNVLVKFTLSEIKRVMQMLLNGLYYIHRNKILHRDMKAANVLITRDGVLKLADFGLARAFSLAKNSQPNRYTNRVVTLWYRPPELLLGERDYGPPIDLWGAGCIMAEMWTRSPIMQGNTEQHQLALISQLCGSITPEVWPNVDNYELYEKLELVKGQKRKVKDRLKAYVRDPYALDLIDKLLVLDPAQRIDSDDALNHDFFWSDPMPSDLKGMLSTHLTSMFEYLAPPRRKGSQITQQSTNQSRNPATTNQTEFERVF
Sequence of CDK9/CYCLIN K (O75909 whole entry partner, species assumed): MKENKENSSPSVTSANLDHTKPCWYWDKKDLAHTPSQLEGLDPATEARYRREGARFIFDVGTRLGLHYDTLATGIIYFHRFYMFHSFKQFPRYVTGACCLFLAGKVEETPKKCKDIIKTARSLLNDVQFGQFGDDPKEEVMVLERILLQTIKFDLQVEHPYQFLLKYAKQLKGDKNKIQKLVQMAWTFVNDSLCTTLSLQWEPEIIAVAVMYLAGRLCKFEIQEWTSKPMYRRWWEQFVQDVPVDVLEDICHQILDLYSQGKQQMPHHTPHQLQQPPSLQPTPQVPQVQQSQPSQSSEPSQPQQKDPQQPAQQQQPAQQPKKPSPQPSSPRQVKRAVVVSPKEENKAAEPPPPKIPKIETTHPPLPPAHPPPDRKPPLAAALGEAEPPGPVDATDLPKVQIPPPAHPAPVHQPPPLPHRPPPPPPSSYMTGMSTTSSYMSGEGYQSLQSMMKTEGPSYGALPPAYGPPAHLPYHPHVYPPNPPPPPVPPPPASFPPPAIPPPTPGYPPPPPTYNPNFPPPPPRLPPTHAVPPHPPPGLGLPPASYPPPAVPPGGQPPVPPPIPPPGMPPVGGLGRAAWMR
Sequence of EPHB2 (P29323 19-1055, species assumed): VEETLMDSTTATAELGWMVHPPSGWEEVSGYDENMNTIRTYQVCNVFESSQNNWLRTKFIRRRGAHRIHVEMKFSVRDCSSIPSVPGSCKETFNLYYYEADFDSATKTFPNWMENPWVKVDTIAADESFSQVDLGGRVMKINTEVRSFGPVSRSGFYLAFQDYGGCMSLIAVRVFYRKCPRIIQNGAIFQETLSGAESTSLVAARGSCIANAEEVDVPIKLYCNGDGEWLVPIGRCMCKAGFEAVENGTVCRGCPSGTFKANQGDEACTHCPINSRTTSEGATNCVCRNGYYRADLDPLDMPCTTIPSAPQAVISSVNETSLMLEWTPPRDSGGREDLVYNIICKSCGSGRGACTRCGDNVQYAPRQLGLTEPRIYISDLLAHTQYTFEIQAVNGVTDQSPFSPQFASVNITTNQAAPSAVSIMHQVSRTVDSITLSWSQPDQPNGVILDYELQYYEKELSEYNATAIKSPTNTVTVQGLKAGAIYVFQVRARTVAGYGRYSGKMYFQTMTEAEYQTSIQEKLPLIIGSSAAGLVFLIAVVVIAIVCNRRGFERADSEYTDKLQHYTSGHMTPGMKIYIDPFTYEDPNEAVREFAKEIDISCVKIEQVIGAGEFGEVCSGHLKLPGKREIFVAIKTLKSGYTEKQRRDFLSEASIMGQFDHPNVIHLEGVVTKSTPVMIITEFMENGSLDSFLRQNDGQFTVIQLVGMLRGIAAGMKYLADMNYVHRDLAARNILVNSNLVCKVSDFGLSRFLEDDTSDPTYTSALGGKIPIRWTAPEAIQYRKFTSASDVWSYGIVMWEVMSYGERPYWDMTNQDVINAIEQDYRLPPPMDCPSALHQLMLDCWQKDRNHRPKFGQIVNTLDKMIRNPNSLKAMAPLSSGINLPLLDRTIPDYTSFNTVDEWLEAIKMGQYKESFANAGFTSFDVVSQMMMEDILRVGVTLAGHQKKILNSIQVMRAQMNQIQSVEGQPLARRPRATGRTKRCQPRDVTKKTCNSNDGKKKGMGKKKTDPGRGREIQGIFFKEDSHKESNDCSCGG
Sequence of STK25/YSK1 (O00506 whole entry): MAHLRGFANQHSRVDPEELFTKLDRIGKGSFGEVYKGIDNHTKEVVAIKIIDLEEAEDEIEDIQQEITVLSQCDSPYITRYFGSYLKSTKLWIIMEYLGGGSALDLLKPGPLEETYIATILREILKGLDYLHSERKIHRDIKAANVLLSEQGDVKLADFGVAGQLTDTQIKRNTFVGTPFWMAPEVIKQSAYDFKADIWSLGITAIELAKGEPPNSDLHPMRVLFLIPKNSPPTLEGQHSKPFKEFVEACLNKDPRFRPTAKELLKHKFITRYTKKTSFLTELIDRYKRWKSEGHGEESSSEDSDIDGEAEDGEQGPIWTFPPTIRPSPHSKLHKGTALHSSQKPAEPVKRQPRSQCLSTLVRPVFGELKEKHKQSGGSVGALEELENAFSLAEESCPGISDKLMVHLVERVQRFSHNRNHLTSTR
Sequence of SIK3 (Q9Y2K2 whole entry, species assumed): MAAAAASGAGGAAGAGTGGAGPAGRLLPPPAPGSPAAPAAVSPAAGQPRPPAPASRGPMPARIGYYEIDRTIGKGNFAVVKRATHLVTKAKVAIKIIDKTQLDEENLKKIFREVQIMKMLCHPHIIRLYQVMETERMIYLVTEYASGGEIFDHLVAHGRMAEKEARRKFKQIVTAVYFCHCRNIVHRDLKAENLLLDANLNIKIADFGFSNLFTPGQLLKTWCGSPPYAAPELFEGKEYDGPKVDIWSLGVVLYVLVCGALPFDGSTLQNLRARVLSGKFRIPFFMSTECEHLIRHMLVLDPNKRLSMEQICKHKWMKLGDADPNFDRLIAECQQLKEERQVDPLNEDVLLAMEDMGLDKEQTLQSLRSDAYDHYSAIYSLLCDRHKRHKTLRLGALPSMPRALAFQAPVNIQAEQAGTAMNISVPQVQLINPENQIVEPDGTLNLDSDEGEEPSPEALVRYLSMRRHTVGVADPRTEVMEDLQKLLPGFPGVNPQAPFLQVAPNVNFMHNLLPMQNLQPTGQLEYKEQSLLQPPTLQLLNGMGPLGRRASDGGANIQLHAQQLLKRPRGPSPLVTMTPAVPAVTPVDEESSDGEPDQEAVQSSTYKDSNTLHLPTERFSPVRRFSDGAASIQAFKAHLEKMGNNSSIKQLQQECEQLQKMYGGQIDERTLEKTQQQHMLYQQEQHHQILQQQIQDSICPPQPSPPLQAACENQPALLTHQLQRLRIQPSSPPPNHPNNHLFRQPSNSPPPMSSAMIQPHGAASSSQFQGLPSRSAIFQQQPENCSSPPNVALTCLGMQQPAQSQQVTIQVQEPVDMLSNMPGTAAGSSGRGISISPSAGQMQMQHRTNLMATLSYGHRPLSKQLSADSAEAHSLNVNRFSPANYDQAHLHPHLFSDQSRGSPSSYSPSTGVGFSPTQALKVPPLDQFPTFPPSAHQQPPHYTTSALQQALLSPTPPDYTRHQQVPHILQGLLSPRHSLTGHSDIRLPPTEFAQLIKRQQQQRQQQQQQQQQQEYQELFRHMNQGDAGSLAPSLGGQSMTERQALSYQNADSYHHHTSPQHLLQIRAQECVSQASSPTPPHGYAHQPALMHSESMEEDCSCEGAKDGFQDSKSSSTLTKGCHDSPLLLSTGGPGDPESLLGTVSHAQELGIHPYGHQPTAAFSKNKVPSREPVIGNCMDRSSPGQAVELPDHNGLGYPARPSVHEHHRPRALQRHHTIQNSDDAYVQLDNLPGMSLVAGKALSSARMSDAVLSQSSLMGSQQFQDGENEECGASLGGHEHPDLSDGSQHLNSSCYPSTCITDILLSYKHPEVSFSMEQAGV
Sequence of MARK4 (Q96L34 whole entry, species assumed): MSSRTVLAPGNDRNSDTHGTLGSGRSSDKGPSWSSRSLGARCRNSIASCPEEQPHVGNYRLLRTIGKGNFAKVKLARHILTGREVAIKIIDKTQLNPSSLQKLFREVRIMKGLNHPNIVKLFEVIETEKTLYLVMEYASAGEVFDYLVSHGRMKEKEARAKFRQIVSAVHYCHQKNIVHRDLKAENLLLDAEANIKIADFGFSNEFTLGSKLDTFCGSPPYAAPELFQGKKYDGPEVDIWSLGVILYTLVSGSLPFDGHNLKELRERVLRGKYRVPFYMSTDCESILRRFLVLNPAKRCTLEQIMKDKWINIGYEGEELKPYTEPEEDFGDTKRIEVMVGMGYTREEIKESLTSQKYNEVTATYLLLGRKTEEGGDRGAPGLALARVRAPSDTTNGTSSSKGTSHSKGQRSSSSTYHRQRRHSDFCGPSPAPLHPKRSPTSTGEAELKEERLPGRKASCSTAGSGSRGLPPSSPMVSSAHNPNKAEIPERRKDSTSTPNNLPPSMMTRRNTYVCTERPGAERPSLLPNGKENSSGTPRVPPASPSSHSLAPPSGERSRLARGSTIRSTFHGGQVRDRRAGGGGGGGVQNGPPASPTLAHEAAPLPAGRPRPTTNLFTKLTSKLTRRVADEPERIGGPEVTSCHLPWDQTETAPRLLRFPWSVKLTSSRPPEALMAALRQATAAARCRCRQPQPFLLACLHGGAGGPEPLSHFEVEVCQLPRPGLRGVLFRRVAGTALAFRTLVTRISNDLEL

Row | SMILES | remaining activity at 1 µM [1] | remaining activity at 1 µM [2] | remaining activity at 1 µM [3] | remaining activity at 1 µM [4] | remaining activity at 1 µM [5] | remaining activity at 1 µM [6] | remaining activity at 1 µM [7] | remaining activity at 1 µM [9] | remaining activity at 1 µM [10] | remaining activity at 1 µM [11] | remaining activity at 1 µM [12] | remaining activity at 1 µM [13] | remaining activity at 1 µM [14] | remaining activity at 1 µM [15] | remaining activity at 1 µM [16] | remaining activity at 1 µM [17] | remaining activity at 1 µM [18] | remaining activity at 1 µM [19] | remaining activity at 1 µM [21] | remaining activity at 1 µM [22] | further results
1 | Cc1ccc(Nc2ncc3c(n2)C2(CC2)C(=O)N(c2cc(NC(=O)c4cccc(C(F)(F)F)c4)ccc2C)C3)cn1 [Compound 51, N-(4-methyl-3-(2'-((6-methylpyridin-3-yl)amino)-7'-oxo-5'H-spiro[cyclopropane-1,8'-pyrido[4,3-d]pyrimidine]-6'(7'H)-yl)phenyl)-3-(trifluoromethyl)benzamide] | > 40% | ≤ 40% | > 40% | > 40% | ≤ 40% | > 40% | > 40% | > 40% | ≤ 40% | > 40% | > 40% | > 40% | ≤ 40% | > 40% | > 40% | ≤ 40% | > 40% | ≤ 40% | > 40% | > 40% | remaining activity at 1 µM ([8]; P38a/MAPK14, 1 µM): ≤ 40%; remaining activity at 1 µM ([20]; p70S6Kb/RPS6KB2, 1 µM): > 40%; remaining activity at 1 µM [23]: > 40%; remaining activity at 1 µM [24]: > 40%; remaining activity at 1 µM [25]: ≤ 40%; remaining activity at 1 µM [26]: ≤ 40%; remaining activity at 1 µM [27]: ≤ 40%; remaining activity at 1 µM [28]: ≤ 40%; remaining activity at 1 µM [29]: > 40%; remaining activity at 1 µM ([30]; CAMKla): > 40%; remaining activity at 1 µM [31]: > 40%; remaining activity at 1 µM [32]: > 40%; remaining activity at 1 µM [33]: ≤ 40%
2 | Cc1cn(-c2cc(C(=O)Nc3ccc(C)c(N4Cc5cnc(NC6CC6)nc5C5(CC5)C4=O)c3)cc(C(F)(F)F)c2)cn1 [Compound 8, N-(3-(2'-(cyclopropylamino)-7'-oxo-5'H-spiro[cyclopropane-1,8'-pyrido[4,3-d]pyrimidine]-6'(7'H)-yl)-4-methylphenyl)-3-(4-methyl-1H-imidazol-1-yl)-5-(trifluoromethyl)benzamide] | > 40% | ≤ 40% | > 40% | > 40% | ≤ 40% | > 40% | > 40% | > 40% | ≤ 40% | > 40% | > 40% | > 40% | ≤ 40% | > 40% | > 40% | ≤ 40% | > 40% | ≤ 40% | > 40% | > 40% | remaining activity at 1 µM ([8]; P38A/MAPK14, 1 µM): ≤ 40%; remaining activity at 1 µM ([20]; P70S6KB/RPS6KB2, 1 µM): > 40%; remaining activity at 1 µM [23]: > 40%; remaining activity at 1 µM [24]: > 40%; remaining activity at 1 µM [25]: ≤ 40%; remaining activity at 1 µM [26]: ≤ 40%; remaining activity at 1 µM [27]: ≤ 40%; remaining activity at 1 µM [28]: ≤ 40%; remaining activity at 1 µM [29]: > 40%; remaining activity at 1 µM ([30]; CAMK1A): > 40%; remaining activity at 1 µM [31]: > 40%; remaining activity at 1 µM [32]: > 40%; remaining activity at 1 µM [33]: > 40%
